These results are taken from ChEMBL document CHEMBL3616462, “Synthesis and antiviral activity of maleopimaric and quinopimaric acids' derivatives” (Bioorg Med Chem, 2015).

Structures are written as SMILES.

By CC50 is commonly meant the concentration that lowers cell viability or growth by half. One may read the EC50 as the concentration at which the effect is half-maximal. Read a high EC50 as lower potency in that assay.

A short description of series [1]: Cytotoxicity against Influenza B virus (B/Florida/4/2006) infected MDCK cells. The series is classed as cell-based, Canis lupus familiaris. The following applies: dog.
A short description of series [2]: Selectivity index, ratio of CC50 for Influenza A virus (A/Viet Nam/1203/2004(H5N1)) infected MDCK cells to EC50 for antiviral activity against Influenza A virus (A/Viet Nam/1203/2004(H5N1)) infected in MDCK cells. The series is classed as toxicity, cell-based. Conditions: dog; read-out: Ratio CC50/EC50.
The nature of series [3]: Cytotoxicity against Influenza A virus (A/Viet Nam/1203/2004(H5N1)) infected MDCK cells. The following applies: dog. Format: cell-based, Canis lupus familiaris.
Series [4] is described as follows: Antiviral activity against Influenza A virus (A/Brisbane/10/2007(H3N2)) infected in MDCK cells. The series is classed as functional, cell-based.
Series [5] is described as follows: Antiviral activity against Influenza A virus (A/Viet Nam/1203/2004(H5N1)) infected in MDCK cells. The series is classed as functional, cell-based.
Series [6] can be described thus: Selectivity index, ratio of CC50 for Influenza A virus (A/California/07/2009(H1N1)) infected MDCK cells to EC50 for antiviral activity against Influenza A virus H1N1 (A/California/07/2009(H1N1)) infected in MDCK cells. Format: toxicity, cell-based. The following applies: dog; read-out: Ratio CC50/EC50.
The test system of the next series is Influenza B virus. Put plainly: Antiviral activity against Influenza B virus (B/Florida/4/2006) in MDCK cells. Format: functional, cell-based. The following applies: B/Florida/4/2006, MDCK.
Series [7] is described as follows: Cytotoxicity against Influenza A virus (A/California/07/2009(H1N1)) infected MDCK cells. Conditions: dog. The series is classed as cell-based, Canis lupus familiaris.
The nature of series [8]: Antiviral activity against Influenza A virus (A/California/07/2009(H1N1)) infected in MDCK cells. The series is classed as functional, cell-based.
Series [9] in a line: Selectivity index, ratio of CC50 for Influenza B virus (B/Florida/4/2006) infected MDCK cells to EC50 for antiviral activity against Influenza B virus (B/Florida/4/2006) in MDCK cells. Format: toxicity, cell-based. The following applies: dog; read-out: Ratio CC50/EC50.
The nature of series [10]: Cytotoxicity against Influenza A virus (A/Brisbane/10/2007(H3N2)) infected MDCK cells. Format: cell-based, Canis lupus familiaris. The following applies: dog.
Series [11] can be described thus: Selectivity index, ratio of CC50 for Influenza A virus (A/Brisbane/10/2007(H3N2)) infected MDCK cells to EC50 for antiviral activity against Influenza A virus (A/Brisbane/10/2007(H3N2)). The series is classed as toxicity, cell-based. The following applies: dog; read-out: Ratio CC50/EC50.

Take `COC(=O)[C@]1(C)CCC[C@]2(C)[C@H]3C[C@H]4C(C(C)C)=C[C@]3(CC[C@H]21)[C@@H]1C(=O)[C@H]2O[C@H]2C(=O)[C@@H]14`: the 50% cytotoxic concentration (CC50) came out at 3.3 µM in [1], 3.3 µM in series [3], 34 µM in series [7] and 23 µM in series [10]. Also, the results for the selectivity ratio in series [2], in [6] and in series [9] were 1, 1.2 and 1, respectively. Further, the EC50 is greater than 23 µM in series [4], 3.2 µM in series [5], 3.2 µM with Influenza B virus and 29 µM in [8].

`COC(=O)[C@]1(C)CCC[C@]2(C)[C@H]3C[C@H]4C(C(C)C)=C[C@]3(CC[C@H]21)[C@@H]1C(=O)CC[C@H](OC(=O)CCC(=O)O)[C@@H]14`: the CC50 in [1], in series [3], in series [7] and in series [10] was greater than 100 µM each time. The selectivity ratio in series [2] is greater than 1.1. Also, the concentration for a half-maximal effect (EC50) in series [4] is greater than 100 µM; in series [5], 88 µM; in the series on Influenza B virus, greater than 100 µM; in series [8], greater than 100 µM.

Turning to `COC(=O)[C@]1(C)CCC[C@]2(C)[C@H]3C[C@H]4C(C(C)C)=C[C@]3(CC[C@H]21)[C@@H]1C(=O)CC[C@H](OC(=O)c2cccnc2)[C@@H]14`, the CC50 in series [1] was found to be 3.2 µM; in [3], 3.2 µM; in series [7], 35 µM; in [10], 33 µM. Besides, the selectivity ratio in [2] was determined as 1; in [6], 1.1; in [11], 1; in [9] it was 1. Besides, the half-maximal effective concentration (EC50) in series [4] stood at 32 µM; in [5], 3.2 µM; in the series on Influenza B virus it was 3.2 µM; in series [8], 32 µM.

Take `COC(=O)[C@]1(C)CCC[C@]2(C)[C@H]3C[C@H]4C(C(C)C)=C[C@]3(CC[C@H]21)[C@@H]1C(=O)OC(=O)[C@@H]14`: the 50% cytotoxic concentration (CC50) in series [1] is 8.7 µM; in series [3], 32 µM; in series [7], 35 µM; in [10], 33 µM. Also, the values for the selectivity ratio in [2], in [6] and in [11] were 1.5, 1.1 and 1, respectively. Also, the 50% effective concentration (EC50) in series [4] is 32 µM; in series [5] it was 21 µM; with Influenza B virus, greater than 8.7 µM; in series [8] it was 31 µM.

Turning to `COC(=O)[C@]1(C)CCC[C@]2(C)[C@H]3C[C@H]4C(C(C)C)=C[C@]3(CC[C@H]21)[C@@H]1/C(=N/OC(C)=O)CC[C@H](OC(C)=O)[C@@H]14`, the CC50 in series [1] came out at 2.8 µM; in [3] it was 2.5 µM; in series [7], 4.8 µM; in series [10], 3.3 µM. Besides, the EC50 in series [4] is 3.1 µM; in series [5] it was greater than 2.5 µM; in the series on Influenza B virus it was greater than 2.8 µM; in [8], greater than 4.8 µM. Besides, in series [11], the selectivity ratio was determined as 1.1.

For the compound `COC(=O)[C@]12CC[C@H](O)[C@H]1[C@@]13C=C(C(C)C)[C@@H]2C[C@@H]1[C@@]1(C)CCC[C@@](C)(C(=O)OC)[C@@H]1CC3`, the half-maximal cytotoxic concentration (CC50) in series [1] worked out at 3.1 µM; in [3], 3.2 µM; in series [7], 35 µM; in [10] it was 24 µM. The selectivity ratio came out at 1 in series [2] and 1.1 in series [6]. Besides, the 50% effective concentration (EC50) in series [4] is greater than 24 µM; in [5], 3.2 µM; in the series with Influenza B virus, greater than 3.1 µM; in series [8], 32 µM.

On to `CC(C)C1=C[C@@]23CC[C@H]4[C@](C)(COC(=O)/C=C/c5ccccc5)CCC[C@]4(C)[C@H]2C[C@@H]1[C@@H]1[C@H]3[C@@H](OC(=O)/C=C/c2ccccc2)CC[C@@H]1OC(=O)/C=C/c1ccccc1`, for which the CC50 is 46 µM in series [1], greater than 100 µM in series [3], 35 µM in series [7] and 33 µM in [10]. The concentration for a half-maximal effect (EC50) in series [4] is 31 µM; in [5] it was greater than 100 µM; in the series with Influenza B virus it was greater than 46 µM; in [8] it was 31 µM. Moreover, the selectivity ratio in series [6] and in series [11] was 1.1 each time.

In the case of `COC(=O)[C@]12C=CC(=O)[C@H]1[C@@]13C=C(C(C)C)[C@@H]2C[C@@H]1[C@@]1(C)CCC[C@@](C)(C(=O)OC)[C@@H]1CC3`, the CC50 in series [1] was found to be 25 µM; in [3] it was 13 µM; in [7] it was 3.8 µM; in [10], 3.9 µM. Further, the EC50 was 3.2 µM in [4], greater than 13 µM in series [5], greater than 25 µM in the series with Influenza B virus and 3.1 µM in series [8]. The selectivity ratio in series [6] and in series [11] was 1.2 each time.

Take `COC(=O)[C@]12CCC(=O)[C@H]1[C@@]13C=C(C(C)C)[C@@H]2C[C@@H]1[C@@]1(C)CCC[C@@](C)(C(=O)OC)[C@@H]1CC3`: the CC50 in series [1] was determined as 31 µM; in [3] it was 32 µM; in series [7], 34 µM; in series [10], 33 µM. For the same compound, the selectivity ratio in [2] came to 1; in series [6], 1.1; in [11] it was 1. For the same compound, the EC50 was 32 µM in series [4], 32 µM in [5], greater than 31 µM in the series with Influenza B virus and 31 µM in series [8].

Turning to `COC(=O)[C@]1(C)CCC[C@]2(C)[C@H]3C[C@H]4C(C(C)C)=C[C@]3(CC[C@H]21)[C@@H]1C(=O)CCC(=O)[C@@H]14`, the CC50 in [1], in [3], in series [7] and in [10] was greater than 100 µM each time. Moreover, the concentration giving a half-maximal response (EC50) is greater than 100 µM in series [4], greater than 100 µM in series [5], 32 µM in the series on Influenza B virus and greater than 100 µM in series [8]. The selectivity ratio in series [9] was greater than 3.1.

As to `COC(=O)[C@]1(C)CCC[C@]2(C)[C@H]3C[C@H]4C(C(C)C)=C[C@]3(CC[C@H]21)[C@@H]1C(=O)CC[C@H](OC(=O)/C=C/c2ccccc2)[C@@H]14`, the CC50 in series [1] turned out to be 24 µM; in [3], 9 µM; in series [7], 35 µM; in series [10] it was 17 µM. In addition, the EC50 in series [4] was greater than 17 µM; in series [5], greater than 9 µM; in the series with Influenza B virus, 10 µM; in [8], 31 µM. Further, the figures for the selectivity ratio in series [6] and in series [9] were 1.1 and 2.4, respectively.

For the compound `COC(=O)[C@H](CCSC)NC(=O)[C@]1(C)CCC[C@]2(C)[C@H]3C[C@H]4C(C(C)C)=C[C@]3(CC[C@H]21)[C@@H]1C(=O)OC(=O)[C@@H]14`, the half-maximal cytotoxic concentration (CC50) in series [1] was 32 µM; in series [3] it was 32 µM; in series [7] it was 34 µM; in series [10], 30 µM. For the same compound, the selectivity ratio in series [2] stood at 1; in [6], 1.1; in series [9], 1. Further, the EC50 in [4] is greater than 30 µM; in series [5], 32 µM; with Influenza B virus it was 32 µM; in [8], 31 µM.
